The target of this experiment is T1, human mPGES-1 (Homo sapiens, UniProt O14684).
T1 sequence (O14684 1-152): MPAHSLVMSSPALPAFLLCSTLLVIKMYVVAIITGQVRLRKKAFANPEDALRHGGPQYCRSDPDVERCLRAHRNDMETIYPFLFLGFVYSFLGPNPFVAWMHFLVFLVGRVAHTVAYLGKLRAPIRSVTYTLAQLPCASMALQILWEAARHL
As to the kind of experiment: Microsomal prostaglandin E synthase biochemical assay. The conditions noted are these: microsome preparation containing human mPGES-1; PGH2 10.8 μM, GSH 2.5 mM, pH 6.8; PGE2 by HTRF; average of at least n=2. As for the experimental part: Compounds were tested as inhibitors of microsomal prostaglandin E synthase activity in microsomal prostaglandin E synthase assays and whole cell assays. These assays measure prostaglandin E2 (PGE2) synthesis which is taken as a measure of prostaglandin E synthase activity. Microsomal prostaglandin E synthase biochemical assays used microsomal prostaglandin E synthase-1 in microsomal preparations. The source of the microsomes can be for example interleukin-1β-stimulated human A549 cells (which express human mPGES-1) or Sf9 cells transfected with plasmids encoding human mPGES-1 cDNA. The whole blood assay [described by Patrignani, P. et al., Journal of Pharmacology and Experimental Therapeutics, 1994, vol. 271, pp 1705-1712] was used as the whole cell assay for testing the compounds. Whole blood provides a protein and cell rich milieu for the study of biochemical efficacy of anti-inflammatory compounds such as prostaglandin synthase inhibitors. To study the inhibitory activities of these compounds, human blood was stimulated with lipopolysaccharide (LPS) for typically 16 hours to induce mPGES-1 expression, after which the concentration of produced PGE2 was measured by competitive-immuno assay (homogeneous time-resolved fluorescence, HTRF) as read out for effectiveness against mPGES-1-dependent PGE2 production.
Microsomal Prostaglandin E Synthase Biochemical Assay
A solution of test compound was added to a diluted microsome preparation containing human mPGES-1 and pre-incubated for 15 minutes in potassium phosphate buffer pH 6.8 with cofactor glutathione (GSH). Corresponding solutions without test compound were used as positive controls, and corresponding solutions without test compound and without microsomes were used as negative controls. The enzymatic reaction was then started by addition of the substrate PGH2 in an organic solution (dry acetonitrile).
The typical reaction conditions of the enzymatic reaction were thus: Test compound: ranging from 60 μM to 0.002 μM, or zero in positive and negative controls; potassium phosphate buffer pH 6.8: 50 mM; GSH: 2.5 mM; mPGES-1-containing microsomes: 2 μg/mL (sample and positive controls) or 0 μg/mL (negative control); PGH2: 10.8 μM; Acetonitrile: 7.7% (v/v); DMSO: 0.6% (v/v). The reaction was stopped after one minute by adding an acidic solution (pH 1.9) of ferric chloride and citrate (final concentrations 7 mM and 47 mM respectively), by which the PGH2 was sequestered (the PGH2 is reduced to mainly 12-hydroxy heptadecatrineoic acid (12-HHT) which is not detected by the subsequent PGE2 detection step). The resulting solution was then pH neutralized by addition of potassium phosphate buffer, prior to diluting an aliquot of the resulting solution in a weak potassium phosphate buffer (50 mM, pH 6.8) containing 0.2% BSA (w/v). [Adapted from Jacobsson et al., Proc. Natl. Acad. Sci. USA, 1999, vol. 96, pp. 7220-7225]The PGE2 formed was quantified by use of a commercial HTRF based kit (catalogue #62PG2PEC or #62P2APEC from Cisbio International). 100% activity was defined as the PGE2 production in positive controls subtracted by the PGE2 production in the negative controls. IC50 values were then determined using standard procedures.
The potency is expressed as IC50 and the value indicated is an average of at least n=2.
(In general: In TR-FRET formats the signal depends on donor and acceptor labels being close together.)

Broadly, the IC50 is the concentration at which inhibition is half-maximal. Read a low IC50 as inhibition by little substance. As for `Cc1ccc(NS(=O)(=O)/C=C/c2cccc(Cl)c2)c(S(N)(=O)=O)c1` [Example 63, 2-[[(E)-2-(3-Chlorophenyl)ethenyl]sulfonylamino]-5-methyl-benzenesulfonamide], the IC50 turned out to be 3 µM.
With `NS(=O)(=O)c1cccc(F)c1NS(=O)(=O)/C=C/c1cccc(Cl)c1` [Example 64, 2-[[(E)-2-(3-Chlorophenyl)ethenyl]sulfonylamino]-3-fluoro-benzenesulfonamide] the figure was 3.1 µM; with `NS(=O)(=O)c1cccc(F)c1NS(=O)(=O)/C=C/c1cccc(C(F)(F)F)c1` [Example 65, 3-Fluoro-2-[[(E)-2-[3-(trifluoromethyl)phenyl]ethenyl]sulfonylamino]-benzenesulfonamide], 3.8 µM; with `NS(=O)(=O)c1c(F)cccc1NS(=O)(=O)/C=C/c1cccc(C(F)(F)F)c1` [Example 66, 2-Fluoro-6-[[(E)-2-[3-(trifluoromethyl)phenyl]ethenyl]sulfonylamino]-benzenesulfonamide], 6.2 µM.
With `NS(=O)(=O)c1ccc(F)cc1NS(=O)(=O)/C=C/c1ccccc1F` [Example 67, 4-Fluoro-2-[[(E)-2-(2-fluorophenyl)ethenyl]sulfonylamino]benzenesulfonamide] the figure was 6.4 µM; with `Cc1ccc(NS(=O)(=O)/C=C/c2cccc(C(F)(F)F)c2)c(S(N)(=O)=O)c1` [Example 68, 5-Methyl-2-[[(E)-2-[3-(trifluoromethyl)phenyl]ethenyl]sulfonylamino]-benzenesulfonamide], 9.1 µM.
With `NS(=O)(=O)c1ccccc1NS(=O)(=O)CCc1ccc(C2CCCC2)cc1` [Example 69, 2-[2-(4-Cyclopentylphenyl)ethylsulfonylamino]benzenesulfonamide] the figure was 0.27 µM; with `CC(C)(C)c1ccc(CCS(=O)(=O)Nc2ccccc2S(N)(=O)=O)cc1` [Example 70, 2-[2-(4-Tert-butylphenyl)ethylsulfonylamino]benzenesulfonamide], 0.22 µM; with `CC(C)(C)c1ccc(CCS(=O)(=O)Nc2cc(F)ccc2S(N)(=O)=O)cc1` [Example 71, 4-Fluoro-2-[2-(4-tert-butylphenyl)ethylsulfonylamino]benzenesulfonamide], 0.3 µM.
`NS(=O)(=O)c1ccccc1NS(=O)(=O)CCc1ccc(Cl)cc1` [Example 72, 2-[2-(4-Chlorophenyl)ethylsulfonylamino]benzenesulfonamide] had an IC50 of 0.49 µM.
With `NS(=O)(=O)c1ccccc1NS(=O)(=O)/C=C/c1ccc(Cl)cc1` [Example 73, 2-[[(E)-2-(4-Chlorophenyl)ethenyl]sulfonylamino]benzenesulfonamide] the figure was 0.29 µM.
`NS(=O)(=O)c1ccccc1NS(=O)(=O)CCc1ccccc1` [Example 74, 2-(Phenethylsulfonylamino)benzenesulfonamide] displayed an IC50 of 9.8 µM.
With `NS(=O)(=O)c1ccccc1NS(=O)(=O)/C=C/c1ccccc1` [Example 75, 2-[[(E)-2-Phenylethenyl]sulfonylamino]benzenesulfonamide] the figure was 2.6 µM.
For `NS(=O)(=O)c1ccccc1NS(=O)(=O)CCc1ccccc1Cl` [Example 76, 2-[2-(2-Chlorophenyl)ethylsulfonylamino]benzenesulfonamide], half-maximal inhibition (IC50) was put at 1.2 µM.
Next, `COc1ccc(/C=C/S(=O)(=O)Nc2ccccc2S(N)(=O)=O)cc1` [Example 77, 2-[[(E)-2-(4-Methoxyphenyl)ethenyl]sulfonylamino]benzenesulfonamide]: 3.1 µM; `NS(=O)(=O)c1ccc(F)cc1NS(=O)(=O)/C=C/c1ccc(Cl)cc1` [Example 78, 2-[[(E)-2-(4-Chlorophenyl)ethenyl]sulfonylamino]-4-fluoro-benzenesulfonamide]: 0.35 µM.
Regarding `CC(CS(=O)(=O)Nc1ccccc1S(N)(=O)=O)c1ccccc1` (centres unmarked) [Example 79, 2-(2-Phenylpropylsulfonylamino)benzenesulfonamide], the IC50 came out at 9.9 µM.
With `NS(=O)(=O)c1c(F)cccc1NS(=O)(=O)/C=C/c1ccc(Cl)cc1` [Example 80, 2-[[(E)-2-(4-Chlorophenyl)ethenyl]sulfonylamino]-6-fluoro-benzenesulfonamide] the figure was 0.57 µM; with `NS(=O)(=O)c1ccccc1NS(=O)(=O)/C=C/c1c(Cl)cccc1Cl` [Example 81, 2-[[(E)-2-(2,6-Dichlorophenyl)ethenyl]sulfonylamino]benzenesulfonamide], 2.9 µM; with `Cc1ccc(/C=C/S(=O)(=O)Nc2ccccc2S(N)(=O)=O)cc1` [Example 82, 2-[[(E)-2-(4-Methylphenyl)ethenyl]sulfonylamino]benzenesulfonamide], 7.3 µM.
The molecule `COc1ccccc1/C=C/S(=O)(=O)Nc1ccccc1S(N)(=O)=O` [Example 83, 2-[[(E)-2-(2-Methoxyphenyl)ethenyl]sulfonylamino]benzenesulfonamide] showed an IC50 of 0.43 µM.
With `NS(=O)(=O)c1ccccc1NS(=O)(=O)/C=C/c1ccc2ccccc2c1` [Example 84, 2-[[(E)-2-Naphthalen-2-ylethenyl]sulfonylamino]benzenesulfonamide] the figure was 0.19 µM.
On to `NS(=O)(=O)c1ccc(F)cc1NS(=O)(=O)CCc1ccc(Cl)cc1` [Example 85, 2-[2-(4-Chlorophenyl)ethylsulfonylamino]-4-fluoro-benzenesulfonamide], for which the IC50 turned out to be 0.8 µM.
The molecule `C/C(=C\S(=O)(=O)Nc1ccccc1S(N)(=O)=O)c1ccc(Cl)cc1` [Example 86, 2-[[(E)-2-(4-Chlorophenyl)prop-1-enyl]sulfonylamino]benzenesulfonamide] showed an IC50 of 0.7 µM.
Consider `C=C(CS(=O)(=O)Nc1ccccc1S(N)(=O)=O)c1ccc(Cl)cc1` [Example 87, 2-[2-(4-Chlorophenyl)prop-2-enylsulfonylamino]benzenesulfonamide], for which half-maximal inhibition (IC50) was put at 2.4 µM.
`NS(=O)(=O)c1c(F)cccc1NS(=O)(=O)/C=C/c1ccc2ccccc2c1` [Example 88, 2-Fluoro-6-[[(E)-2-naphthalen-2-ylethenyl]sulfonylamino]benzenesulfonamide] had an IC50 of 1.3 µM.
Molecule `NS(=O)(=O)c1c(F)cccc1NS(=O)(=O)/C=C/c1ccccc1C(F)(F)F` [Example 89, 2-Fluoro-6-[[(E)-2-[2-(trifluoromethyl)phenyl]ethenyl]sulfonylamino]-benzenesulfonamide] yielded an IC50 of 2.8 µM.
In turn, `NS(=O)(=O)c1c(F)cccc1NS(=O)(=O)/C=C/c1ccc(C(F)(F)F)cc1` [Example 90, 2-Fluoro-6-[[(E)-2-[4-(trifluoromethyl)phenyl]ethenyl]sulfonylamino]-benzenesulfonamide] registered an IC50 of 0.87 µM.
For `NS(=O)(=O)c1c(F)cccc1NS(=O)(=O)/C=C/c1ccc(Br)cc1` [Example 91, 2-[[(E)-2-(4-Bromophenyl)ethenyl]sulfonylamino]-6-fluoro-benzenesulfonamide], the IC50 turned out to be 0.31 µM.
`NS(=O)(=O)c1ccc(F)cc1NS(=O)(=O)/C=C/c1ccc2ccccc2c1` [Example 92, 4-Fluoro-2-[[(E)-2-naphthalen-2-ylethenyl]sulfonylamino]benzenesulfonamide] yielded an IC50 of 0.091 µM.
With `NS(=O)(=O)c1ccc(F)cc1NS(=O)(=O)/C=C/c1ccccc1C(F)(F)F` [Example 93, 4-Fluoro-2-[[(E)-2-[2-(trifluoromethyl)phenyl]ethenyl]sulfonylamino]-benzenesulfonamide] the figure was 0.65 µM; with `NS(=O)(=O)c1ccc(F)cc1NS(=O)(=O)/C=C/c1ccc(C(F)(F)F)cc1` [Example 94, 4-Fluoro-2-[[(E)-2-[4-(trifluoromethyl)phenyl]ethenyl]sulfonylamino]-benzenesulfonamide], 0.65 µM.

The values above are taken from patent US20090163586A1, “Bis-(Sulfonylamino) Derivatives in Therapy 205” (AstraZeneca AB, priority 2007, published 2009).
